Entries after “also recorded” stand apart in the source; their conditions may differ. Where two headings read alike, the source gives them in different places.
Key:
[1] = in vivo; cited from earlier work
aromatase [2] = target: T1, aromatase (Homo sapiens, UniProt P11511); experiment: Androstenedione and Cysteine Protection Experiments (t1/2 of aromatase inactivation), tritium release assay; type: biochemical; conditions: 1 at 500 nM, 2 at 167 nM, 30° C., NADPH, not corrected for background loss; for t1/2 (mean ± SD), time to bring about a 50% inhibition of aromatase: inhibitor alone; for t1/2 (mean ± SD), inhibitor and androstenedione: with androstenedione 5.0 μM; for t1/2 (mean ± SD), inhibitor and cysteine: with cysteine 1.0 mM
T1 construct: Placental microsomes were prepared as previously described; from tissue; host or cells: human placenta, microsomes
T1 sequence (P11511 1-503): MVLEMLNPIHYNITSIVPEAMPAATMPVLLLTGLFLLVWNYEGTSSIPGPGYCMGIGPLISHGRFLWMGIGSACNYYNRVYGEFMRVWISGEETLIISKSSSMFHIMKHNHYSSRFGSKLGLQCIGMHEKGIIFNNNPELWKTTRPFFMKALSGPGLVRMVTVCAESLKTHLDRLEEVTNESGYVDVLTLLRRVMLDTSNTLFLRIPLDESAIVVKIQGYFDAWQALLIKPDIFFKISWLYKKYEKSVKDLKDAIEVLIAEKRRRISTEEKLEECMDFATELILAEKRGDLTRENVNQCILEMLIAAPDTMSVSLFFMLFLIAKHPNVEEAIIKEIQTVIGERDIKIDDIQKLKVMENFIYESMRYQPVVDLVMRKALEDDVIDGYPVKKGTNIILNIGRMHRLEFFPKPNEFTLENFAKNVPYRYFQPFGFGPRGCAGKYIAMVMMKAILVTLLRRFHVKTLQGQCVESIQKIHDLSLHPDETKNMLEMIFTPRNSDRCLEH
Method: (§1) The activity of 17β-hydroxy-10β-mercaptoestr-4-en-3-one and 19-mercaptoandrost-4-en-3,17-dione were tested as suicide inhibitors of aromatase according to the method of Coury et al. (J. Biol. Chem., 256, 1076 (1981)) in human placental microsomes. The activity was measured by the well-established tritium release assay according to Thompson et al. (J. Biol. Chem., 249, 5364 (1974)) using 1β,2β-[^3 H]androstenedione (40-60 Ci/mole) obtained from New England Nuclear in Boston, MA.
(§2) Human placenta were obtained from the University Hospital, University of Washington, Seattle, WA, and were used within a few hours of delivery. Placental microsomes were prepared as previously described. (Coury et al). Protein concentration was determined by the method of Lowry (J. Biol. Chem., 193, 265 (1951)).
(§3) All incubations were carried out in 10 mM phosphate buffer, pH 7.5, 100 mM KCl, 1/mM EDTA. Incubations contained 1.0 mg/ml microsomal protein, 32 mg/ml propylene glycol, 0.36 mM NADPH, 11.5 mM glucose-6-phosphate dehydrogenase and 10 mM MgCl2 and were allowed to warm to 30° C. for 5 minutes. Inhibitors were added as 10 μl/ml from 10 μM stock solutions in ethanol to give final inhibitor concentrations of 100 nM. At various times, from 0 to 70 minutes, 400 μl aliquots in duplicate were removed and were added to […] of a 10 mM phosphate buffer, pH 7.5, 100 mM KCl, 1 mM EDTA containing 40 μM 1β,2β,[^3 H]androstenedione (20 Ci/mol). Tritium release incubations were conducted at 37° C. for 10 minutes and stopped by addition of 5 ml 20% acetone/chloroform. Following vortexing at high speeds for 30 seconds and centrifugation, 100 μl of the water layer was removed and mixed with 5 ml LSC cocktail and counted. Percent activity remaining is the number of DPMs after a time period divided by the number of DPMs at time zero multiplied by 100.
Incubations containing 1.0 mg/ml microsomal protein, 32 mg/ml propylene glycol, and 0.36 mM NADPH were warmed to 30° C. for 5 minutes. Addition of ethanol solutions (10 μl/ml) of inhibitors with and without androstenedione gave final concentrations of 500 nM 17β-hydroxy-10β-mercaptoestr-4-en-3-one, 167 nM 19-mercaptoandrost-4-en-3,17-dione, with and without 5.0 μM androstenedione. After 0, 1, 2, and 3 minutes at 30° C., 400 μl aliquots, in duplicate, were removed and added to the tritium release assay.
Incubations containing 1.0 mg/ml microsomal protein, 32 mg/ml propylene glycol, and 0.36 mM NADPH, with or without 1.0 mM cysteine, were warmed to 30° C. for 5 minutes. Addition of inhibitor solution (10 μl/ml) gave final concentrations of 500 nM 17β-hydroxy-10β-mercapto-4-en-3-one and 167 nM 19-mercaptoandrost-4-en-3,17-dione. After incubating 0, 1, 2, and 3 minutes, 400 μl aliquots, in duplicate, were removed and added to tritium release assays.

aromatase [3] = target: T1, aromatase; experiment: Irreversibility Experiments (diffusion dialysis), tritium release assay; type: biochemical; conditions: 250 nM inhibitor, preincubation 5 minutes at 30° C.
Method: as §1, §2
Incubations containing 1.8 mg/ml microsomal protein, 32 mg/ml propylene glycol, 0.7 mM NADPH, and 250 nM of inhibitor were kept at 4° C. For zero time points, 400 μl aliquots, in triplicate, were removed and added to tritium release assays. Remaining microsomes were incubated at 30° C. for 5 minutes, cooled in ice to 4° C.; and 400 μl aliquots, in triplicate, were added to tritium release assays to determine remaining activity. Remaining microsomes were added to dialysis tubing (Spectrapore® membrane tubing, 3500 dalton cut off) and dialyzed against a 10 mM phosphate buffer, pH 7.5, 100 mM KCl, 1 mM EDTA, and 5% propylene glycol at 0° C. for 20 hours. To serve as controls, incubations containing the same concentrations of inhibitor, but no cofactors, were carried through the same procedures.
After dialysis, 400 μl aliquots, in duplicate, were added to 100 μl phosphate buffer containing 2.9 mM NADPH and 40 μM 1β,2β[^3 H]androstenedione (20 Ci/mol) and incubated at 37° C. for 10 minutes. The usual workup for the tritium release assay was followed. Protein content for all incubations fell approximately 25% after dialysis. Enzyme activity fell approximately 60% after dialysis.

aromatase [4] = target: T1, aromatase; experiment: NADPH and Oxygen Dependency Experiments: aromatase inactivation in placental microsomes, tritium release assay; type: biochemical; conditions: 500 nM inhibitor, preincubation 3 minutes at 30° C., not corrected for background loss (approximately 5%)
Method: as §1, §2, §3
Incubations containing 1.0 mg/ml microsomal protein, 32 mg/ml propylene glycol, with or without 0.36 mM NADPH, were warmed to 30° C. for 5 minutes. Inhibitors were added in ethanol (10 μl/ml of incubate) to give inhibitor concentrations of 500 nM. Controls contained only ethanol and NADPH. After incubating 0 and 3 minutes at 30° C., 400 μl aliquots, in duplicate, from the NADPH containing incubations were added to the tritium release assay. For incubations lacking NADPH, 400 μl aliquots were removed and added to 100 μl phosphate buffer containing 1.4 mM NADPH and […] 1β,2β[^3 H]androstenedione (20 Ci/mol). Tritium release assays were conducted as described above.
Incubations containing 1.0 mg/ml microsomal protein, 32 mg/ml propylene glycol, and 500 nM inhibitor or ethanol (10 μl/ml) were prepared. Incubations run under anaerobic conditions were alternately evacuated and purged with deoxygenated nitrogen ten times at 0° C. Both anaerobic and aerobic incubations were allowed to warm to 30° C. for 5 minutes, and 10 μl/ml of a 1.4 mM NADPH solution was added via a syringe. After incubating 0 and 3 minutes at 30° C., triplicate aliquots of 400 μl were removed and added to tritium release assays.

aromatase [5] = target: T1, aromatase; experiment: Concentration-Dependent Inactivation (rate constant of inactivation); type: biochemical; conditions: relative to 19-mercaptoandrost-4-en-3,17-dione
Method: as §1, §2
Incubations containing 1.0 mg/ml microsomal protein, 32 mg/ml propylene glycol, and 0.36 mM NADPH were warmed to 30° C. for 5 minutes. Various concentrations of inhibitor were added to the incubations in ethanol (10 μl/ml of incubate). Ethanol (10 μl/ml was) added as a control. After incubating 0, 1, 2, and 3 minutes at 30° C., 400 μl aliquots, in duplicate, were removed and were added to the tritium release assay described above.

[6] = after dialysis 20 hours at 0° C., read-out: Activity Remaining (mean ± SD), After Dialysis
[7] = 5 min, before dialysis, read-out: Activity Remaining (mean ± SD), Before Dialysis
[8] = N2 atmosphere (anaerobic), read-out: % Activity Remaining (mean ± SD), + N2 atmosphere
[9] = with NADPH, aerobic, read-out: % Activity Remaining (mean ± SD)
[10] = without NADPH, read-out: % Activity Remaining (mean ± SD), - NADPH

Row | Compound | side effects [1] | t1/2 (mean ± SD), time to bring about a 50% inhibition of aromatase (aromatase [2]) [min] | t1/2 (mean ± SD), inhibitor and androstenedione (aromatase [2]) [min] | t1/2 (mean ± SD), inhibitor and cysteine (aromatase [2]) [min] | remaining activity at 0.25 µM (aromatase [3]; [6]) [%] | remaining activity at 0.25 µM (aromatase [3]; [7]) [%] | remaining activity at 0.5 µM (aromatase [4]; [8]) [%] | remaining activity at 0.5 µM (aromatase [4]; [9]) [%] | remaining activity at 0.5 µM (aromatase [4]; [10]) [%] | rate constant ratio, 17β-hydroxy-10β-mercaptoestr-4-en-3-one vs 19-mercaptoandrost-4-en-3,17-dione (aromatase [5])
1 | CCC1(c2ccc(N)cc2)CCC(=O)NC1=O (stereo not drawn) [aminoglutethimide] | lethargy or tumor lysis syndrome; also recorded: sedative which has the side effect of lethargy |  |  |  |  |  |  |  |  | 
2 | C[C@]12CC[C@H]3[C@@H](CCC4=CC(=O)CC[C@@]43CS)[C@@H]1CCC2=O [compound 2, 19-mercaptoandrost-4-en-3,17-dione] |  | 7.7 ± 1.25 | 12.2 ± 0.35 | 6.87 ± 0.333 | 58 ± 2 | 50 ± 5 | 95 ± 5 | 77 ± 4 | 95 ± 5 | 
3 | C[C@]12CC[C@H]3[C@@H](CCC4=CC(=O)CC[C@@]43S)[C@@H]1CC[C@@H]2O [compound 1, 17β-hydroxy-10β-mercaptoestr-4-en-3-one] |  | 4.68 ± 0.833 | 12.6 ± 0.833 | 5.17 ± 0.967 | 52 ± 3 | 49 ± 6 | 95 ± 2 | 67 ± 2 | 96 ± 3 | about three

— patent publication US4745109A, “Suicide inhibitors of aromatase” (Washington Research Foundation, priority 1984, dated 1988)
